The record followed here is patent publication US11986647B2, “Treating autoinflammatory and mitochondrial diseases using an alternating electric field” (Novocure GmbH, priority 2018, dated 2024).

Broadly, the IC50 is the concentration that inhibits the measured activity by half. A lower IC50 goes with inhibition by little substance.

The subject of one data set is brain tumor cell lines. Briefly: IC50 determination through drug-response curves. The data set is classed as cell-based. The following applies: range across the brain tumor cell lines.
A further data set has as its system SF188 cells. The conditions noted are these: human, 72 h.
The test system of a further data set is UW228-3 cells. The conditions noted are these: human, 72 h.
The subject of the next data set is BXD-1425EPN cells. The conditions noted are these: human, 72 h.

Values joined by “and” are separate entries in the source; they are usually repeats but may differ in a detail not shown here. Identical values can stand only once.

Description for BXD-1425EPN cells: (§1) Cells were treated with TMZ (Sigma-Aldrich), Paclitaxel (Sigma-Aldrich) and Mebendazole (Sigma-Aldrich) as a monotherapy or in combination with TTFields. Each of the drugs were administered at their IC50 (high dose) or 10% IC50 (low dose), with the IC50s being determined through drug-response curves.
(§2) TTFields were applied using the Inovitro™ system (Novocure, Haifa). The system consists of two pairs of perpendicular transducer arrays on the outer walls of a ceramic Petri dish. A sinusoidal waveform generator was attached to the transducer arrays to produce alternating electric fields at frequencies between 100-400 kHz and 1.75V/cm intensity. The electric fields alternated orientation of 90° every second. The temperature was measured to be 37° C. inside the dishes by 2 thermistors attached to the ceramic walls.
(§3) PrestoBlue™ was added to each sample at a time-point at a 1:10 dilution. Samples were incubated at 37° C. for 30 minutes. 100 μ1 (triplicate) of the PrestoBlue solution was transferred to a black-bottomed 96-well plate and fluorescence was analyzed via UV-Vis Spectroscopy at excitation/emission wavelengths at 560/590 nm with the FLUOstar Omega (BMG Labtech).
Description for SF188 cells: as §1, §2, §3
Description for UW228-3 cells: as §1, §2, §3
Description for brain tumor cell lines: as §1, §3

`CC(=O)O[C@H]1C(=O)[C@@]2(C)[C@H]([C@H](OC(=O)c3ccccc3)[C@]3(O)C[C@H](OC(=O)[C@H](O)[C@@H](NC(=O)c4ccccc4)c4ccccc4)C(C)=C1C3(C)C)[C@]1(OC(C)=O)CO[C@@H]1C[C@@H]2O` [Paclitaxel]: in the data set on brain tumor cell lines, the half-maximal inhibitory concentration (IC50) is 0.00036 to 0.0046 µM and 0.0004 to 0.0046 µM. Moreover, the figures for the “reduction of cell viability” value in the data set on SF188 cells, in the data set with UW228-3 cells and in the data set on BXD-1425EPN cells were 30%, 32% and 23%, respectively.
`COC(=O)Nc1nc2ccc(C(=O)c3ccccc3)cc2[nH]1` [Mebendazole]: the IC50 with brain tumor cell lines is 0.03 to 1.2 µM and 0.02 to 1.2 µM. Moreover, the “reduction of cell viability” value in the data set on SF188 cells came to 39%; in the data set on UW228-3 cells, 28%; in the data set on BXD-1425EPN cells, 30%.
